The nature of data set [1]: RP, Waters ACQUITY UPLC BEH C18, 100 × 1 mm, 1.7 µm, 50 °C, 0.3 mL/min, estimated dead time 0.17 min; A: water + 10 mM ammonium bicarbonate; B: 10% water + 90% methanol + 10 mM ammonium bicarbonate; gradient (min/%B) 0/0 15/100 21/100 22/0 30/0. Conditions: stereoisomer not certain.
Data set [2] can be described thus: RP, Waters ACQUITY UPLC BEH C18, 100 × 1 mm, 1.7 µm, 50 °C, 0.3 mL/min, estimated dead time 0.17 min; A: water + 0.1% formic acid + 20 mM ammonium formate; B: methanol + 0.1% formic acid + 20 mM ammonium formate; gradient (min/%B) 0/0 15/100 21/100 22/0 30/0. The conditions noted are these: stereoisomer not certain.

SMILES strings stand for the structures.

In the case of `Nc1c(Br)cc(Br)cc1CNC1CCC(O)CC1` (configuration not stated) [Ambroxol], the figures for the LC retention time in data set [1] and in data set [2] were 15.4 min and 10.6 min, respectively.

Turning to `Clc1ccccc1C(c1ccccc1)(c1ccccc1)n1ccnc1` [Clotrimazole], the LC retention time in data set [1] is 16.7 min; in data set [2], 13.9 min.

With `COc1ccc(Cc2nccc3cc(OC)c(OC)cc23)cc1OC` [Papaverin], the LC retention time is 13.3 min in data set [1] and 9.77 min in data set [2].

For `Oc1cc(Cl)c(Cl)c(Cl)c1` [3,4,5-trichlorophenol], the LC retention time in data set [1] is 14.2 min; in data set [2], 15.2 min.

For the molecule `Clc1ccccc1-c1nnc(-c2ccccc2Cl)nn1` [Clofentezine (Apolo)], the figures for the LC retention time in data set [1] and in data set [2] were 16.3 min and 15.9 min, respectively.

In the case of `CNC(=O)C(C)SCCSP(=O)(OC)OC` (configuration not stated) [Vamidothion (Vamidoate)], the values for the LC retention time in data set [1] and in data set [2] were 9.45 min and 9.33 min, respectively.

As to `O=C1NC(=O)C2CC=CCC12` (configuration not stated) [Tetrahydrophthalimide], the LC retention time in data set [1] is 5.35 min; in data set [2], 5.38 min.

In the case of `CC(C)CCCCCCCOC(=O)c1ccccc1C(=O)OCCCCCCCC(C)C` [Di-iso-decylphthalate], the figures for the LC retention time in data set [1] and in data set [2] were 21.3 min and 20 min, respectively.

As to `CC(CN(C)C)CN1c2ccccc2CCc2ccccc21` (configuration not stated) [Trimipramine], the LC retention time in data set [1] is 17.8 min; in data set [2], 12.9 min.

On to `Cc1nccn1CC1CCc2c(c3ccccc3n2C)C1=O` (configuration not stated) [Ondansetron], for which the LC retention time in data set [1] was 12.4 min; in data set [2], 9.64 min.

On to `CCC(C)OC(=O)N1CCCCC1CCO` (configuration not stated) [Icaridin], for which the LC retention time in data set [1] is 14 min; in data set [2], 13.7 min.

Take `CN1CCC23c4c5ccc(O)c4OC2C(O)C=CC3C1C5` (configuration not stated) [Morphine]: the LC retention time in data set [1] is 10.4 min; in data set [2], 4.19 min.

Regarding `CCOC(=O)C1=NOC(c2ccccc2)(c2ccccc2)C1` [Isoxadifen-ethyl], the LC retention time in data set [1] is 15.7 min; in data set [2], 15.4 min.

For the molecule `COc1nc(NC(=O)NS(=O)(=O)c2ccccc2C(F)(F)F)nc(C(F)(F)F)n1` [Tritosulfuron], the LC retention time in data set [1] is 11.9 min; in data set [2] it was 13.8 min.

Consider `Cc1nccc2c1[nH]c1ccccc12` [Harman], for which the LC retention time in data set [1] was 13.4 min; in data set [2], 9.01 min.

Take `CC=C1CC(C)C(C)(O)C(=O)OCC2=CC[N+]3([O-])CCC(OC1=O)C23` (configuration not stated) [Senecionine N-oxide]: the LC retention time in data set [1] is 9.78 min; in data set [2], 8.82 min.

As to `CN1C2CC(OC(=O)C(CO)c3ccccc3)CC1C1OC12` (single isomer, unassigned; (-)) [(-)-Scopolamine], the LC retention time in data set [1] was 11.2 min; in data set [2], 7.05 min.

With `CN(C1CCCCC1)C1CCCCC1` [N-Methyl-dicyclohexylamine], the LC retention time is 13.1 min in data set [1] and 9.22 min in data set [2].

Regarding `CCCCCCCCCOC(=O)c1ccccc1C(=O)OCCCCCCCCC` [Dinonylphthalate], the LC retention time was 20.5 min in data set [1] and 19.7 min in data set [2].

Take `CC(=O)Nc1cc(Cl)ccc1C` [5'-CHLORO-2'-METHYLACETANILIDE]: the LC retention time in data set [1] is 11.2 min; in data set [2], 11 min.

For the molecule `CNC(=O)ON=CC(C)(C)S(C)=O` (configuration not stated) [Aldicarb Sulfoxide], the LC retention time is 6.62 min in data set [1] and 6.57 min in data set [2].

Turning to `COCCOCCOCCO` [2-(2-(2-Methoxyethoxy)ethoxy)ethanol], the LC retention time was 6.68 min in data set [1] and 6.67 min in data set [2].

Consider `O=P(O)(Oc1ccccc1)Oc1ccccc1` [Diphenylphosphate], for which the LC retention time in data set [1] is 10.9 min; in data set [2], 11 min.

On to `Nc1c(Cl)c(Cl)nc(C(=O)O)c1Cl` [Picloram], for which the LC retention time was 4.43 min in data set [1] and 7.28 min in data set [2].

As to `CN(C)CCOC(c1ccccc1)c1ccccc1` [Diphenhydramine], the LC retention time was 15.7 min in data set [1] and 11.7 min in data set [2].

Regarding `Clc1ccccn1` [2-Chloropyridine], the LC retention time was 8.38 min in data set [1] and 8.31 min in data set [2].

With `Cc1c(C=O)c(=O)n(-c2ccccc2)n1C` [4-Formyl-antipyrine], the LC retention time in data set [1] was 7.74 min; in data set [2], 7.75 min.

With `O=C(c1ccccc1)C1CCCCC1` [Cyclohexylphenylketone], the LC retention time was 15.9 min in data set [1] and 15.5 min in data set [2].

As for `COc1ccc2c(c1O)-c1c(OC)c(OC)cc3c1C(C2)N(C)CC3` (single isomer, unassigned; (+)) [(+)-Isocorydin], the LC retention time was 13.6 min in data set [1] and 8.65 min in data set [2].

Regarding `S=c1[nH]c2ccccc2s1` [2-Mercaptobenzothiazole], the LC retention time in data set [1] was 8.11 min; in data set [2] it was 11 min.

On to `O=C(Nc1ccccc1)c1ccccc1I` [Benodanil], for which the LC retention time in data set [1] was 12.9 min; in data set [2], 12.7 min.

Consider `CCCCC(CC)COP(=O)(Oc1ccccc1)Oc1ccccc1` (configuration not stated) [2-Ethylhexyldiphenyl phosphate], for which the values for the LC retention time in data set [1] and in data set [2] were 18.1 min and 17.7 min, respectively.

For `c1ccc2sc(NC3CCCCC3)nc2c1` [N-cyclohexyl-2-benzothiazole-amine], the LC retention time is 15.8 min in data set [1] and 14.1 min in data set [2].

Take `CC(C)CCCCCCOC(=O)c1ccccc1C(=O)OCCCCCCC(C)C` [Di-iso-nonylphthalate]: the LC retention time is 20.5 min in data set [1] and 19.7 min in data set [2].

`Cc1cccc(N(C)C(=S)Oc2ccc3ccccc3c2)c1` [Tolnaftate]: the LC retention time in data set [1] is 17 min; in data set [2], 16.6 min.

`CNC(=O)Nc1ccc(Cl)c(Cl)c1` [1-(3,4-Dichlorphenyl)-3-methyl-Harnstoff]: the LC retention time in data set [1] is 13 min; in data set [2], 12.8 min.

As to `CON=C1CC2(CC3CC(CC=C(C)CC(C)C=CC=C4COC5C(O)C(C)=CC(C(=O)O3)C45O)O2)OC(C(C)=CC(C)C)C1C` (configuration not stated) [Moxidectin], the LC retention time in data set [1] is 19 min; in data set [2], 18.6 min.

Consider `CCCCOC(=O)COC(=O)c1ccccc1C(=O)OCCCC` [2-Butoxy-oxoethylbutylphthalate], for which the values for the LC retention time in data set [1] and in data set [2] were 16.6 min and 16.2 min, respectively.

As for `CC(C)NCC(O)COc1ccc(CC(N)=O)cc1` (configuration not stated) [Atenolol], the LC retention time is 8.56 min in data set [1] and 6.38 min in data set [2].

For `O=C(O)c1cn(C2CC2)c2cc(N3CCNCC3)c(F)cc2c1=O` [Ciprofloxacin], the LC retention time in data set [1] was 7.67 min; in data set [2] it was 8.34 min.

Take `CCN(CC)c1nc(C)cc(OP(=S)(OC)OC)n1` [Pirimiphos-methyl]: the LC retention time in data set [1] is 16.3 min; in data set [2], 15.8 min.

On to `CCCCc1oc2ccccc2c1C(=O)c1cc(I)c(OCCN(CC)CC)c(I)c1` [Amiodarone], for which the LC retention time is 20.1 min in data set [1] and 16.7 min in data set [2].

For `O=C1Nc2ccc(Cl)cc2C(C#CC2CC2)(C(F)(F)F)O1` (configuration not stated) [Efavirenz], the LC retention time in data set [1] is 15.8 min; in data set [2], 15.5 min.

As for `CCOP(=O)(SC(C)CC)N1CCSC1=O` (configuration not stated) [Fosthiazate], the LC retention time is 12.8 min in data set [1] and 12.6 min in data set [2].

As for `O=[N+]([O-])N=C1NCCN1Cc1ccc(Cl)nc1` [Imidacloprid], the LC retention time in data set [1] is 8.74 min; in data set [2] it was 8.69 min.

Regarding `CCCCC(CC)COC(=O)C(C#N)=C(c1ccccc1)c1ccccc1` (configuration not stated) [Octocrylene], the values for the LC retention time in data set [1] and in data set [2] were 18.2 min and 17.8 min, respectively.

Take `Cc1ccc(-c2c(Cl)nc(C#N)n2S(=O)(=O)N(C)C)cc1` [Cyazofamid]: the LC retention time in data set [1] is 15.3 min; in data set [2], 15 min.

Regarding `CCOP(=O)(OCC)OC(=CCl)c1ccc(Cl)cc1Cl` [Chlorfenvinphos], the results for the LC retention time in data set [1] and in data set [2] were 16.1 min and 15.8 min, respectively.

Consider `CNCCCC12CCC(c3ccccc31)c1ccccc12` [Maprotiline], for which the LC retention time is 15.4 min in data set [1] and 12.8 min in data set [2].

Take `CCCCCCCCCCCC(=O)NCC(C)O` (configuration not stated) [Lauric isopropanolamide]: the LC retention time was 17.1 min in data set [1] and 16.7 min in data set [2].

Take `NCC1(CC(=O)O)CCCCC1` [Gabapentin]: the LC retention time in data set [1] is 6.17 min; in data set [2] it was 7.38 min.

`CCOc1ccc(C(C)(C)COCc2cccc(Oc3ccccc3)c2)cc1` [Etofenprox]: the LC retention time in data set [1] is 14.1 min; in data set [2] it was 13.8 min.

As to `CN(Cc1cnc2nc(N)nc(N)c2n1)c1ccc(C(=O)NC(CCC(=O)O)C(=O)O)cc1` (configuration not stated) [Methotrexate], the values for the LC retention time in data set [1] and in data set [2] were 6.74 min and 7.89 min, respectively.

As to `CC1CC2(OC2C)C(=O)OC2CC[N+]3([O-])CC=C(COC(=O)C1(C)O)C23` (configuration not stated) [Jacobine N-oxide], the values for the LC retention time in data set [1] and in data set [2] were 7.35 min and 6.84 min, respectively.

Turning to `CC(=O)OC1CCN2CC=C(COC(=O)C(O)(C(C)C)C(C)O)C12` (configuration not stated) [7-Acetyllycopsamine], the LC retention time in data set [1] is 11.8 min; in data set [2] it was 8.13 min.

Regarding `Cc1ncc2n1-c1ccc(Cl)cc1C(c1ccccc1F)=NC2` [Midazolam], the LC retention time in data set [1] is 14.6 min; in data set [2], 11.4 min.

Source of the values: the RepoRT retention time repository (doi:10.1021/acs.analchem.1c00972).
